In patent US12123010B2, “Plants having increased tolerance to herbicides” (BASF SE, priority 2017, dated 2024):

How the values were obtained:
[1] = tested on: Variant PPO Enzyme L397Q, F420M (Amaranthus PPO2); type: biochemical; settings: variant L397Q, F420M vs wild type
[2] = tested on: Transgenic T2 Corn plants harbouring PPO inhibitor tolerance trait and J553 non transgenic; assay: Corn Trial, post spray, injury score 14 DAT; type: in vivo
Description: Immature embryos are transformed according to the procedure outlined in Peng et al. (WO2006/136596). Plants are tested for the presence of the T-DNA by Taqman analysis with the target being the nos terminator which is present in all constructs. Healthy looking plants are sent to the greenhouse for hardening and subsequent spray testing. The plants are individually transplanted into MetroMix 360 soil in 4″ pots. Once in the greenhouse (day/night cycle of 27° C./21° C. with 14 hour day length supported by 600 W high pressure sodium lights), they are allowed to grow for 14 days. TO or T1 plants are sprayed with a treatment of the uracilpyridines as disclosed SUPRA and photosynthesis inhibitor diuron as negative control. Herbicide injury evaluations are taken at 7, 14 and 21 days after treatment. Herbicide injury evaluations are taken 2, 7, 14 and 21 days post-spray to look for injury to new growth points and overall plant health. The top survivors are transplanted into gallon pots filled with MetroMix 360 for seed production.
Transgenic T2 Corn plants harbouring PPO inhibitor tolerance trait, were sprayed post with the indicated amount of uracilpyridine+1% (v/v) MSO. Evaluation performed 14 Days After Treatment (DAT) and shown as injury (0-9) relative to non-transgenic treated plants.
Injury Scale: 0-9, 0=no injury, 9=maximum injury. Note: segregating lines.

Row | Structure (SMILES) | Tolerance Factor (R/S) [1] | injury (0-9) ([2]; 25 g/ha + 1% MSO) | injury (0-9) ([2]; 50 g/ha + 1% MSO)
1 | CCOC(=O)COc1ncccc1Oc1nc(-n2c(=O)cc(C(F)(F)F)n(C)c2=O)c(F)cc1Cl [Uracilpyridine 2, ethyl 2-[[3-[[3-chloro-5-fluoro-6-[3-methyl-2,6-dioxo-4-(trifluoromethyl)pyrimidin-1-yl]-2-pyridyl]oxy]-2-pyridyl]oxy]acetate] | 4843 | – | –
2 | CCOC(=O)COc1ccccc1Oc1nc(-n2c(=O)cc(C(F)(F)F)n(C)c2=O)c(F)cc1Cl [Uracilpyridine 4, ethyl 2-[2-[[3-chloro-5-fluoro-6-[3-methyl-2,6-dioxo-4-(trifluoromethyl)pyrimidin-1-yl]-2-pyridyl]oxy]phenoxy]acetate] | – | 7 | 7
